32 compounds from patent publication US12441703B2, “Carboxamides as modulators of sodium channels” (VERTEX PHARMACEUTICALS INCORPORATED, priority 2019, dated 2025) can be followed below.

For orientation: IC50 means the concentration that gives 50% inhibition.

Some results are limits rather than exact numbers.

Chain of human NaV 1.8 (Q9Y5Y9 whole entry, looked up, the tested form may be a part): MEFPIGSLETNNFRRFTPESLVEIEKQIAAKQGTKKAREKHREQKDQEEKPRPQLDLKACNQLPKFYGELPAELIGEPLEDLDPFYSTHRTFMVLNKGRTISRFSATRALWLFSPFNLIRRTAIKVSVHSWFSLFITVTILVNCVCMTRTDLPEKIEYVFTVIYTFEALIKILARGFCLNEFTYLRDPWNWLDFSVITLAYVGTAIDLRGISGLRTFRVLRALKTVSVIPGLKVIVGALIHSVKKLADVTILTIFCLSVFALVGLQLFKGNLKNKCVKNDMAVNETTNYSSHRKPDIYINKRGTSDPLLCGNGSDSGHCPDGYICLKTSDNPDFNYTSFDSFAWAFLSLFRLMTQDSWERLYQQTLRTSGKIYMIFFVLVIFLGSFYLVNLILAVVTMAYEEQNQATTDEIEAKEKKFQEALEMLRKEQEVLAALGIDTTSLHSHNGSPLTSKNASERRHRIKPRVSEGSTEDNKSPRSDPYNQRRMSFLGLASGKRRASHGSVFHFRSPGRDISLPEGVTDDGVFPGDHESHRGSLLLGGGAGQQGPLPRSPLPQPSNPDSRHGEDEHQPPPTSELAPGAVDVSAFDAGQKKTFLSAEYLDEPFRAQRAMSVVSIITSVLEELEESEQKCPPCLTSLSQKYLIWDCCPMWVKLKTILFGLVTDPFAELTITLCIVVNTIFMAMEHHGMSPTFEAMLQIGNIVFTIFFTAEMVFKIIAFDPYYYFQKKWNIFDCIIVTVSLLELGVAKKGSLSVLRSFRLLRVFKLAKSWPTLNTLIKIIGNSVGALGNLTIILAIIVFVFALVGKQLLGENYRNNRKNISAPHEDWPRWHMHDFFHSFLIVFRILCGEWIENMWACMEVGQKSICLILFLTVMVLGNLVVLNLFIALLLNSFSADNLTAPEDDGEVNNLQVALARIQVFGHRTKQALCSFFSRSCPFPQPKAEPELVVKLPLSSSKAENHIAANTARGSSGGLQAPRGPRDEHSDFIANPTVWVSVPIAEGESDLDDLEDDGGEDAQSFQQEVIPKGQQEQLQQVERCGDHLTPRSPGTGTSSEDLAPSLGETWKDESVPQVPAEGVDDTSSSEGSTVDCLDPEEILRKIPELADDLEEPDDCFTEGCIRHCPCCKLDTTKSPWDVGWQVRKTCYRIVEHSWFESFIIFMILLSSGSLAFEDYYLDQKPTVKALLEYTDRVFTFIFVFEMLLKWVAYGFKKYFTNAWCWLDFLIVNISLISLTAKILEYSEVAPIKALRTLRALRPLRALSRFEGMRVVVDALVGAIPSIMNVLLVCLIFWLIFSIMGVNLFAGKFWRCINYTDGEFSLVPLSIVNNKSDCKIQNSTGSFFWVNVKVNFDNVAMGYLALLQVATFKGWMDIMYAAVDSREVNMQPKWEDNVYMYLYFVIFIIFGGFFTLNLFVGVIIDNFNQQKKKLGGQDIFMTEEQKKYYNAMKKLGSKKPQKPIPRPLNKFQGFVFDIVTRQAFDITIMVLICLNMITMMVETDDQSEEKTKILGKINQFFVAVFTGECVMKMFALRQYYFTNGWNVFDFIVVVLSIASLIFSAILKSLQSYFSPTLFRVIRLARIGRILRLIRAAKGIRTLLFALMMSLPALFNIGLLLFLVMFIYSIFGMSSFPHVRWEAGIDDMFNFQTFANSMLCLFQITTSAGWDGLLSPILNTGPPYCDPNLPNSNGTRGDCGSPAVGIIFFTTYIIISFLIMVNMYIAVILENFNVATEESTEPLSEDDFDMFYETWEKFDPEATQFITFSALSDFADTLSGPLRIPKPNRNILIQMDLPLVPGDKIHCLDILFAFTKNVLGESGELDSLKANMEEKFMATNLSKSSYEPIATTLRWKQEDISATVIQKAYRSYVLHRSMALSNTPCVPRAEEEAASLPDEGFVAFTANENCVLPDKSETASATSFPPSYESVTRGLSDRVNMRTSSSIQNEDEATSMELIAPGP

The assay has as its target human NaV 1.8 (Homo sapiens, UniProt Q9Y5Y9). Briefly: E-VIPR assay for detecting and measuring NaV inhibition properties. Format: cell-based. The settings on record: E-VIPR assay conducted in the presence of human serum; HEK cells expressing truncated human NaV 1.8; read-out: IC50. The gist of the method: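 Membrane-potential (coumarin/oxonol) readout after 10 s of 10 Hz biphasic electrical stimulation on E-VIPR. Compounds: 11-point 3-fold dilutions, […], 0.625% DMSO, 30 min at room temperature, human serum optional. Cells: HEK expressing truncated human NaV1.8 co-transduced with KIR2.1.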
For the compound `COc1cc(OC(F)(F)F)ccc1Oc1cc(C(F)F)cc(C)c1C(=O)Nc1ccnc(C(N)=O)c1` [Compound 200, 4-[[4-(difluoromethyl)-2-[2-methoxy-4-(trifluoromethoxy)phenoxy]-6-methyl-benzoyl]amino]pyridine-2-carboxamide], the half-maximal inhibitory concentration (IC50) was determined as 0.085 µM.
The figure for `COc1cc(OC(F)(F)F)ccc1Oc1cc(C2CC2)c(C2CC2)nc1C(=O)Nc1ccnc(C(N)=O)c1` [Compound 201, N-(2-carbamoyl-4-pyridyl)-5,6-dicyclopropyl-3-[2-methoxy-4-(trifluoromethoxy)phenoxy]pyridine-2-carboxamide] is 0.53 µM.
In the case of `COc1cc(OC(F)(F)F)ccc1Oc1cc2c(c(C)c1C(=O)Nc1ccnc(C(N)=O)c1)OC(F)(F)O2` [Compound 202, 4-[[2,2-difluoro-6-[2-methoxy-4-(trifluoromethoxy)phenoxy]-4-methyl-1,3-benzodioxole-5-carbonyl]amino]pyridine-2-carboxamide] it was 0.006 µM.
Take `COc1cc(OC(F)(F)F)ccc1Oc1cc2c(c(C)c1C(=O)Nc1ccc(C(N)=O)nc1)OC(F)(F)O2` [Compound 203]: the half-inhibitory concentration (IC50) was 0.14 µM.
In the case of `COc1cc(OC(F)(F)F)ccc1Oc1ccc(OC2CC(F)(F)C2)c(C)c1C(=O)Nc1ccnc(C(N)=O)c1` [Compound 204, 4-[[3-(3,3-Difluorocyclobutoxy)-6-[2-Methoxy-4-(Trifluoromethoxy)Phenoxy]-2-Methyl-Benzoyl]Amino]Pyridine-2-Carboxamide] it was 0.17 µM.
In the case of `COc1cc(OC(F)(F)F)ccc1Oc1cc(C2CC2)c(C2CC2)nc1C(=O)Nc1ccc(C(N)=O)nc1` [Compound 205, N-(6-carbamoyl-3-pyridyl)-5,6-dicyclopropyl-3-[2-methoxy-4-(trifluoromethoxy)phenoxy]pyridine-2-carboxamide] it was 1.1 µM; in that of `NC(=O)c1ccc(NC(=O)c2c(Oc3ccc(OC(F)(F)F)cc3C3CC3)ccc(C(F)(F)F)c2F)cn1` [Compound 206, 5-[[6-[2-cyclopropyl-4-(trifluoromethoxy)phenoxy]-2-fluoro-3-(trifluoromethyl)benzoyl]amino]pyridine-2-carboxamide], 0.36 µM; in that of `Cc1c(Oc2ccc(C(F)(F)F)c(F)c2C(=O)Nc2ccc(C(N)=O)nc2)ccc(F)c1F` [Compound 207, 5-[[6-(3,4-difluoro-2-methyl-phenoxy)-2-fluoro-3-(trifluoromethyl)benzoyl]amino]pyridine-2-carboxamide], 0.37 µM.
In the case of `Cc1cc(Cl)cc(C)c1Oc1ccc(C(F)(F)F)c(F)c1C(=O)Nc1ccc(C(N)=O)nc1` [Compound 208, 5-[[6-(4-chloro-2,6-dimethyl-phenoxy)-2-fluoro-3-(trifluoromethyl)benzoyl]amino]pyridine-2-carboxamide] it was above 3 µM; in that of `COc1c(Oc2ccc(C(F)(F)F)c(F)c2C(=O)Nc2ccc(C(N)=O)nc2)ccc(OC(F)(F)F)c1F` [Compound 209, 5-[[2-fluoro-6-[3-fluoro-2-methoxy-4-(trifluoromethoxy)phenoxy]-3-(trifluoromethyl)benzoyl]amino]pyridine-2-carboxamide], 0.008 µM.
Turning to `COc1cc(C(F)(F)C(F)(F)F)ccc1Oc1ccc(C(F)(F)F)c(F)c1C(=O)Nc1ccc(C(N)=O)nc1` [Compound 210, 5-[[2-fluoro-6-[2-methoxy-4-(1,1,2,2,2-pentafluoroethyl)phenoxy]-3-(trifluoromethyl)benzoyl]amino]pyridine-2-carboxamide], the IC50 was 0.28 µM.
Turning to `COc1cc(C)cc(OC)c1Oc1ccc(C(F)(F)F)c(F)c1C(=O)Nc1ccc(C(N)=O)nc1` [Compound 211, 5-[[6-(2,6-dimethoxy-4-methyl-phenoxy)-2-fluoro-3-(trifluoromethyl)benzoyl]amino]pyridine-2-carboxamide], the IC50 is above 3 µM.
The figure for `NC(=O)c1ccc(NC(=O)c2c(Oc3c(F)cc(F)cc3F)ccc(C(F)(F)F)c2F)cn1` [Compound 212, 5-[[2-fluoro-3-(trifluoromethyl)-6-(2,4,6-trifluorophenoxy)benzoyl]amino]pyridine-2-carboxamide] is above 3 µM; for `Cc1cc(Cl)cc(Cl)c1Oc1ccc(C(F)(F)F)c(F)c1C(=O)Nc1ccc(C(N)=O)nc1` [Compound 213, 5-[[6-(2,4-dichloro-6-methyl-phenoxy)-2-fluoro-3-(trifluoromethyl)benzoyl]amino]pyridine-2-carboxamide] it is above 3 µM; for `Cc1c(F)ccc(Oc2ccc(C(F)(F)F)c(F)c2C(=O)Nc2ccc(C(N)=O)nc2)c1C` [Compound 214, 5-[[2-fluoro-6-(4-fluoro-2,3-dimethyl-phenoxy)-3-(trifluoromethyl)benzoyl]amino]pyridine-2-carboxamide] it is above 3 µM.
The figure for `NC(=O)c1ccc(NC(=O)c2c(Oc3ccc(F)c(F)c3F)ccc(C(F)(F)F)c2F)cn1` [Compound 215, 5-[[2-fluoro-3-(trifluoromethyl)-6-(2,3,4-trifluorophenoxy)benzoyl]amino]pyridine-2-carboxamide] is 0.57 µM; for `NC(=O)c1ccc(NC(=O)c2c(Oc3ccc(OC(F)(F)F)c(F)c3)ccc(C(F)(F)F)c2F)cn1` [Compound 216, 5-[[2-fluoro-6-[3-fluoro-4-(trifluoromethoxy)phenoxy]-3-(trifluoromethyl)benzoyl]amino]pyridine-2-carboxamide] it is 0.34 µM.
The figure for `NC(=O)c1ccc(NC(=O)c2c(Oc3ccc(OC(F)(F)F)c(Cl)c3)ccc(C(F)(F)F)c2F)cn1` [Compound 217, 5-[[6-[3-chloro-4-(trifluoromethoxy)phenoxy]-2-fluoro-3-(trifluoromethyl)benzoyl]amino]pyridine-2-carboxamide] is 0.16 µM.
For `Cc1cc(Cl)ccc1Oc1ccc(C(F)(F)F)c(F)c1C(=O)Nc1ccc(C(N)=O)nc1` [Compound 218, 5-[[6-(4-chloro-2-methyl-phenoxy)-2-fluoro-3-(trifluoromethyl)benzoyl]amino]pyridine-2-carboxamide], the IC50 amounted to 0.735 µM.
In the case of `NC(=O)c1ccc(NC(=O)c2c(Oc3ccc(Cl)cc3F)ccc(C(F)(F)F)c2F)cn1` [Compound 219, 5-[[6-(4-chloro-2-fluoro-phenoxy)-2-fluoro-3-(trifluoromethyl)benzoyl]amino]pyridine-2-carboxamide] it was 1.5 µM.
Regarding `COc1cc(Cl)ccc1Oc1ccc(C(F)(F)F)c(F)c1C(=O)Nc1ccc(C(N)=O)nc1` [Compound 220, 5-[[6-(4-chloro-2-methoxy-phenoxy)-2-fluoro-3-(trifluoromethyl)benzoyl]amino]pyridine-2-carboxamide], the IC50 was 0.53 µM.
The figure for `NC(=O)c1ccc(NC(=O)c2c(Oc3ccc(OC(F)(F)F)cc3F)ccc(C(F)(F)F)c2F)cn1` [Compound 221, 5-[[2-fluoro-6-[2-fluoro-4-(trifluoromethoxy)phenoxy]-3-(trifluoromethyl)benzoyl]amino]pyridine-2-carboxamide] is 0.43 µM; for `Cc1cc(OC(F)(F)F)ccc1Oc1ccc(C(F)(F)F)c(F)c1C(=O)Nc1ccc(C(N)=O)nc1` [Compound 222, 5-[[2-fluoro-6-[2-methyl-4-(trifluoromethoxy)phenoxy]-3-(trifluoromethyl)benzoyl]amino]pyridine-2-carboxamide] it is 0.12 µM.
For `NC(=O)c1ccc(NC(=O)c2c(Oc3ccc(OC(F)(F)F)cc3Cl)ccc(C(F)(F)F)c2F)cn1` [Compound 223, 5-[[6-[2-chloro-4-(trifluoromethoxy)phenoxy]-2-fluoro-3-(trifluoromethyl)benzoyl]amino]pyridine-2-carboxamide], the IC50 amounted to 0.13 µM.
In the case of `COc1c(Oc2ccc(C(F)(F)F)c(C)c2C(=O)Nc2ccc(C(N)=O)nc2)ccc(OC(F)(F)F)c1F` [Compound 224, 5-[[6-[3-fluoro-2-methoxy-4-(trifluoromethoxy)phenoxy]-2-methyl-3-(trifluoromethyl)benzoyl]amino]pyridine-2-carboxamide] it was 0.006 µM.
Consider `Cc1c(C(F)(F)F)ccc(Oc2ccc(F)c(F)c2F)c1C(=O)Nc1ccc(C(N)=O)nc1` [Compound 225, 5-[[2-methyl-3-(trifluoromethyl)-6-(2,3,4-trifluorophenoxy)benzoyl]amino]pyridine-2-carboxamide], for which the IC50 was determined as 1.5 µM.
In the case of `Cc1c(C(F)(F)F)ccc(Oc2ccc(OC(F)(F)F)cc2C2CC2)c1C(=O)Nc1ccc(C(N)=O)nc1` [Compound 226, 5-[[6-[2-cyclopropyl-4-(trifluoromethoxy)phenoxy]-2-methyl-3-(trifluoromethyl)benzoyl]amino]pyridine-2-carboxamide] it was 0.14 µM; in that of `Cc1c(Oc2ccc(C(F)(F)F)c(C)c2C(=O)Nc2ccc(C(N)=O)nc2)ccc(F)c1F` [Compound 227, 5-[[6-(3,4-difluoro-2-methyl-phenoxy)-2-methyl-3-(trifluoromethyl)benzoyl]amino]pyridine-2-carboxamide], 0.61 µM; in that of `COc1cc(C)cc(OC)c1Oc1ccc(C(F)(F)F)c(C)c1C(=O)Nc1ccc(C(N)=O)nc1` [Compound 228, 5-[[6-(2,6-dimethoxy-4-methyl-phenoxy)-2-methyl-3-(trifluoromethyl)benzoyl]amino]pyridine-2-carboxamide], above 3 µM.
In the case of `Cc1cc(Cl)cc(C)c1Oc1ccc(C(F)(F)F)c(C)c1C(=O)Nc1ccc(C(N)=O)nc1` [Compound 229, 5-[[6-(4-chloro-2,6-dimethyl-phenoxy)-2-methyl-3-(trifluoromethyl)benzoyl]amino]pyridine-2-carboxamide] it was above 3 µM; in that of `Cc1c(C(F)(F)F)ccc(Oc2c(F)cc(F)cc2F)c1C(=O)Nc1ccc(C(N)=O)nc1` [Compound 230, 5-[[2-methyl-3-(trifluoromethyl)-6-(2,4,6-trifluorophenoxy)benzoyl]amino]pyridine-2-carboxamide], above 3 µM.
In the case of `Cc1c(F)ccc(Oc2ccc(C(F)(F)F)c(C)c2C(=O)Nc2ccc(C(N)=O)nc2)c1C` [Compound 231, 5-[[6-(4-fluoro-2,3-dimethyl-phenoxy)-2-methyl-3-(trifluoromethyl)benzoyl]amino]pyridine-2-carboxamide] it was above 3 µM.
